In US10774046B2, “Inhibitors for the treatment of cancer and related methods” (UNIVERSITY OF LOUISVILLE RESEARCH FOUNDATION, INC., priority 2017, dated 2020):

What was measured:
human recombinant PFKFB4 = human recombinant PFKFB4 (Homo sapiens, UniProt Q16877); assay: ADP-Glo kinase assay; assay type: biochemical
Description: The fructose-6-phosphate kinase activity of human recombinant PFKFB4 in the presence of DMSO±indicated 5MPN concentrations was assayed as previously described. The activity of 5MPN against 97 kinases was examined using a commercially available active-site dependent competition binding assay core service (KINOMEscanEDGE) that quantifies the capacity of test agents to compete with an immobilized, active-site directed ligand using a DNA-tagged kinase and immobilized ligand and compound. For example, enzyme inhibition was studied using an ADP-Glo assay. The effect of MPN-2 on the activity of recombinant human PFKFB4 enzyme was examined in an ADP-Glo assay (Promega), which measures ADP formed from a kinase reaction. ADP is converted into ATP, which is converted into light by a luciferase. PFKFB4 protein was exposed to MPN-2 at indicated concentrations in the presence of ATP and fructose-6-phosphate and following manufacturer's instructions, ADP-Glo and kinase detections reagents were added. The data are shown as the decrease in luminescence caused by MPN-2 relative to DMSO.
Method: The efficacy of Formula (VIII) in inhibition of the kinase activity of the PFKFB4 enzyme was examined by exposing recombinant human PFKFB4 protein to Formula (VIII) in the ADP-Glo kinase assay (Promega) which measures ADP formed through a kinase reaction. Briefly, recombinant protein, ATP, substrate and Formula (VIII) were incubated together for the kinase reaction followed by the addition of ADP-Glo reagent, used to terminate the kinase reaction. Lastly, a kinase detection reagent was added to convert the newly formed ADP to ATP which was measured by a luciferase reaction. Data are shown in FIG. 10 as the decrease in luminescence caused by Formula (VIII) relative to DMSO.
Method: The efficacy of FB4-32 and FB4-35 in inhibition of the kinase activity of the PFKFB4 enzyme was examined by exposing recombinant human PFKFB4 protein to FB4-32 and FB4-35 in the ADP-Glo kinase assay (Promega) which measures ADP formed through a kinase reaction. Briefly, recombinant protein, ATP, substrate and FB4-32 or FB4-35 were incubated together for the kinase reaction followed by the addition of ADP-Glo reagent to terminate the kinase reaction. Last, a kinase detection reagent was added to convert the newly formed ADP to ATP which was measured by a luciferase reaction. Data are shown as the decrease in luminescence caused by FB4-32 and FB4-35 relative to DMSO.

H460 cells [1] = assay: proliferation, viable cell count by trypan blue exclusion; assay type: cell-based, human; details: for proliferation (cell counts relative to DMSO): H460, counts at 72 hours shown
Description: Cells were incubated in 20% trypan blue (Sigma) for 5 minutes. Cells excluding trypan blue were counted using a standard hemocytometer (Hausser Scientific) to determine total numbers of viable cells. Data are expressed as mean±SD of three experiments.
H460 non-small cell lung cancer cells were plated in 24 well plates and exposed to increasing concentrations of the indicated inhibitors of Formula IV (FBR1-02 corresponds to
DMSO was used as vehicle. After 24, 48 and 72 hours of exposure, cells were detached and viable cells were counted by Trypan blue exclusion (representative counts at 48 hours shown).
Method: H460 cells were plated in 24 well plates and exposed to increasing concentrations of FB4-31 to FB4-36 and 5MPN. DMSO was used as a vehicle. After 24, 48 and 72 hours of exposure, cells were detached, and viable cells were counted by Trypan blue exclusion (representative counts at 72 hours shown).

H460 cells [2] = assay: F2,6BP measurement in cells (coupled enzyme reaction); assay type: cell-based, human; details: H460, effects at 2.5 μM
Description: Cells or tissues were prepared as previously described and F2,6BP content measured using a coupled enzyme reaction following a modification of the method of Van Schaftingen et al (VAN SCHAFTINGEN E et al. “A kinetic study of pyrophosphate:fructose-6-phosphate phosphotransferase from potato tubers. Application to a microassay of fructose 2,6-bisphosphate” Eur J Biochem (1982) Vol. 129, No. 1, pp. 191-195) and normalized to total cellular protein measured by the bicinchoninic acid assay (BCA, Thermo Scientific). For example, H460 cells were exposed to the indicated concentrations of MPN-2. In order to measure F2,6BP, cells were harvested, washed with PBS, lysed in NaOH/Tris acetate by heating at 80° C. and lysates neutralized to pH 7.2. F2,6BP content was measured using a coupled enzyme reaction following a modified method of Van Schaftingen et al (VAN SCHAFTINGEN E et al. “A kinetic study of pyrophosphate:fructose-6-phosphate phosphotransferase from potato tubers. Application to a microassay of fructose 2,6-bisphosphate” Eur J Biochem (1982) Vol. 129, No. 1, pp. 191-195). The F2,6BP concentration was normalized to total cellular protein measured by the bicinchoninic acid assay (BCA, Thermo Scientific). All data are expressed as the mean±SD of three experiments. Statistical significance was assessed by the two-sample t test (independent variable).
Method: In order to measure F26BP, H460 cells were exposed to increasing concentrations of the agents and were harvested, washed with PBS, lysed in NaOH/Tris acetate by heating at 80° C. and lysates neutralized to pH 7.2. F26BP content was measured using a coupled enzyme reaction following a modified method of Van Schaftingen et al. (Eur J Biochem. 1982; 129(1):191-195). The F26BP concentration was normalized to total cellular protein measured by the bicinchoninic acid assay (BCA, Thermo Scientific).

H460 cells [3] = assay: glycolysis assay (3H2O from 5-[3H]glucose); assay type: cell-based, human; details: H460
Description: H460 cells were exposed to the indicated concentrations of MPN-2 and glycolysis production was examined. Cells growing in 6-well plates were incubated in 500 μl of complete medium containing 1 μCi of 5-[^3H]glucose per well for 60 min in 5% CO2 at 37° C. Media was collected, ^3H2O formed via glycolysis from the 5-[^3H]glucose measured and counts normalized as previously described. For example, the medium was then collected and centrifuged to pellet any suspended cells. To separate the ^3H2O formed via glycolysis from the 5-[^3H]glucose added to the medium, an evaporation technique in a sealed system was utilized. Briefly, 150 μl aliquots of medium were added to open tubes that were placed upright inside scintillation vials containing 1 ml of H2O. The scintillation vials were sealed, and the ^3H2O produced by glycolysis through enolase and released to the medium was allowed to equilibrate with the H2O in the outer vial for 48 h at 37° C. The amounts of ^3H2O that had diffused into the surrounding H2O was measured on a Tri-Carb 2910 liquid scintillation analyzer (Perkin Elmer) and compared with ^3H2O and 5-[^3H]glucose standards. Protein concentration was determined using the BCA assay and counts were normalized to protein concentration. All data are expressed as the mean±SD of three experiments. Statistical significance was assessed by the two-sample t test (independent variable).
Method: To examine glycolysis, H460 cells growing in 6-well plates were incubated in 500 μl of complete medium containing 1 μCi of 5-[^3H] glucose per well for 60 min in 5% CO2 at 37° C. The medium was then collected and centrifuged to pellet any suspended cells. To separate the ^3H2O formed via glycolysis from the 5-[^3H]glucose added to the medium, an evaporation technique in a sealed system was utilized. Briefly, 150 μl aliquots of medium were added to open tubes that were placed upright inside scintillation vials containing 1 ml of H2O. The scintillation vials were sealed, and the ^3H2O produced by glycolysis through enolase and released to the medium was allowed to equilibrate with the H2O in the outer vial for 48 h at 37° C. The amounts of ^3H2O that had diffused into the surrounding H2O was measured on a Tri-Carb 2910 liquid scintillation analyzer (Perkin Elmer) and compared with ^3H2O and 5-[^3H]glucose standards. Protein concentration was determined using the BCA assay and counts were normalized to protein concentration (previously described in CHESNEY et al. Oncotarget. 2014; 5(16):6670-6686.)

[4] = pharmacokinetic profile after IV and oral administration; assay type: in vivo; details: mice
Description: Method: The pharmacokinetic profile of FB4-32 was determined in mice dosed orally and IV with FB4-32. Nine time points (n=3 per time point) were used to determine indicated PK parameters calculated using WinNonLin v5.0. Plasma samples were extracted using acetonitrile and analyzed by LC/MS-MS using a PhenomexSynergi Polar-RP 4 micron 50×2.0 mm column eluted with a biphasic mobile phase (0.5% formic acid in acetonitrile and water).

Chain of human recombinant PFKFB4 (Q16877 whole entry): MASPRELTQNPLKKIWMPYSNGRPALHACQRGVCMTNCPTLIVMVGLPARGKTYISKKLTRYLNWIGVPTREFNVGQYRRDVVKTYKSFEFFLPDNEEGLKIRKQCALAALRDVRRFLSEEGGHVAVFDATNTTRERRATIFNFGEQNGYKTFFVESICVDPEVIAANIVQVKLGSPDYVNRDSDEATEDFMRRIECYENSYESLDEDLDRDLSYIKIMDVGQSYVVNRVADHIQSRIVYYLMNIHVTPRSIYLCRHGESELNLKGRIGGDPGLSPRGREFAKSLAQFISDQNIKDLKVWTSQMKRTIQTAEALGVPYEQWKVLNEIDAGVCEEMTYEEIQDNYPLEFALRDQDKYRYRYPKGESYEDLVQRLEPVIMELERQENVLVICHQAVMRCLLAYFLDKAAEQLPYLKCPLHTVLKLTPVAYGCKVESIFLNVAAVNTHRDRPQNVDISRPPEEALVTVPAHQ

Row | kinase activity of the PFKFB4 enzyme (luminescence relative to DMSO) (human recombinant PFKFB4) | oral bioavailability [4] | Structure (SMILES) | proliferation (cell counts relative to DMSO) (H460 cells [1]) | F26BP (normalized to cellular protein) (H460 cells [2]) | glycolysis (production of 3H2O relative to DMSO) (H460 cells [3]) | proliferation (H460 cells [1]; H460, Formula IV compounds, counts at 48 hours shown)
1 | inhibited | found to have oral bioavailability | COc1cccc2c(NCCCCCCNC(=O)C(F)(F)F)ccnc12 [FB4-32, 2,2,2-Trifluoro-N-(6-((8-methoxyquinolin-4-yl)amino)hexyl)acetamide] | decreased the proliferation of H460 cells in vitro with higher potency than 5MPN | decrease | dose-dependent decrease | –
2 | inhibited | – | COc1cccc2c(NCCCCCNC(=O)CBr)ccnc12 [FB4-35, 2-Bromo-N-(5-((8-methoxyquinolin-4-yl)amino)pentyl)acetamide] | decreased the proliferation of H460 cells in vitro with higher potency than 5MPN | decrease | dose-dependent decrease | –
3 | – | – | O=[N+]([O-])OCCCCCNc1ccnc2ccccc12 [FBR1-02] | – | – | – | decreased proliferation
